# Source: article PMC8060642, “Cloning, Expression, Characterization, and Antioxidant Protection of Glutaredoxin3 From Psychrophilic Bacterium Psychrobacter sp. ANT206” (Frontiers in Microbiology, 2021)
# Test system: T1, Ps-Grx3
# T1 construct: full length, 87 residues (264 bp ORF), class I dithiol Grx with CPYC motif
# Test: GR-coupled NADPH oxidation at […] nm, Lineweaver-Burk
# Assay type: biochemical, Psychrobacter sp. ANT206
# Conditions: 100 mM Tris-HCl pH 8.0, 25 °C; 1.0 mM GSH, 0.2 mM NADPH, 0.6 μg/mL GR; substrate 0.5-2.0 mM
row,Structure (SMILES),Km [µM]
1,"OCCSSCCO [HED, 2-Hydroxyethyl disulfide]",690
2,N[C@@H](CSSC[C@H](N)C(=O)O)C(=O)O [L-cystine],520
3,N[C@@H](CSS(=O)(=O)O)C(=O)O [S-sulfocysteine],790
4,"O=C1O[C@H]([C@@H](O)CO)C(=O)C1=O [DHA, dehydroascorbate]",650
